These results are taken from patent US9656988B2 (Pharmacyclics LLC, priority 2013, dated 2017).

The target in this assay is BTK (Homo sapiens (Human), UniProt Q06187). As to the kind of experiment: Btk in vitro inhibitory activity (one of Method A TR-FRET, Method B electrophoretic mobility shift, Method C radiometric filter binding). It counts as biochemical. A general note: In EMSA bound probe runs differently from free probe, usually more slowly.
[1] abbreviates: determined using one of the methods of Example 355a, 355b and 355c, read-out: BTK IC50.

Molecules are shown by their SMILES. Where two headings read alike, the source gives them in different places.

BTK, sequence (Q06187 whole entry): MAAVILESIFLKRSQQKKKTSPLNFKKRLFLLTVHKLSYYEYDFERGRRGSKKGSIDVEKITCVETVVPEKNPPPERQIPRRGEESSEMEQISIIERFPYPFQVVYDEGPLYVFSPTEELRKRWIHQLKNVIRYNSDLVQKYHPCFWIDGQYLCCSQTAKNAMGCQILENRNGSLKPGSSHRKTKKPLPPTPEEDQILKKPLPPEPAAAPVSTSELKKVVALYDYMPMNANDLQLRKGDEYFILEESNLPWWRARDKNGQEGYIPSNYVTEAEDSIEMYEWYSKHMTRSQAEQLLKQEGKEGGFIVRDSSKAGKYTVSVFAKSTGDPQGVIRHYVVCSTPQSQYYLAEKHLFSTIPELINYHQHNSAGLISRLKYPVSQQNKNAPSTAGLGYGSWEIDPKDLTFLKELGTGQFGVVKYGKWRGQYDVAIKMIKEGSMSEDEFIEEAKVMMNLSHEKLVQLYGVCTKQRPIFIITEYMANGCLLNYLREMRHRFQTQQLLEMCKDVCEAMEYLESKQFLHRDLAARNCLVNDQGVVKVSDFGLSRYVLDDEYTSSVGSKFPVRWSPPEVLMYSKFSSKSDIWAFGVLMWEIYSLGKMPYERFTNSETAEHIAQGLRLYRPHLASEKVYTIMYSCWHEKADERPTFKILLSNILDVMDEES

Take `CCC(=O)N1CCC(C)(c2ccc(Nc3nc(N4CCC[C@@H](N5CCN(C)C5=O)C4)cnc3C(N)=O)cc2)CC1` [Example 269, (R)-3-(4-(4-methyl-1-propionylpiperidin-4-yl)phenylamino)-5-(3-(3-methyl-2-oxoimidazolidin-1-yl)piperidin-1-yl)pyrazine-2-carboxamide]: the IC50 runs as follows: under setting [1], less than 10 nM; (read-out: Btk (IC50)) less than 10 nM.

Turning to `CN(C)C(=O)N[C@@H]1CCCN(c2nnc(C(N)=O)c(Nc3ccc(C4CCN(C5CCCC5)CC4)cc3)n2)C1` [Example 329, (R)-5-(4-(1-cyclopentylpiperidin-4-yl)phenylamino)-3-(3-(3,3-dimethylureido)piperidin-1-yl)-1,2,4-triazine-6-carboxamide], the concentration for half-maximal inhibition (IC50) is less than 10 nM (Btk (IC50)) and less than 10 nM under setting [1].

For `CC(C)N1CCC(c2ccc(Nc3nc(N4CCC[C@@H](NC(=O)N(C)C)C4)cnc3C(N)=O)cc2)CC1` [Example 208, (R)-5-(3-(3,3-dimethylureido)piperidin-1-yl)-3-(4-(1-isopropylpiperidin-4-yl)phenylamino)pyrazine-2-carboxamide], the IC50 was less than 10 nM under setting [1] and less than 10 nM (read-out: Btk (IC50)).

Consider `CC(C)OC(=O)NN(C(=O)OC(C)C)[C@@H]1CCCN(c2nnc(C(N)=O)c(Nc3ccc(C(=O)N4CCOCC4)cc3)n2)C1` [Example 46, (R)-diisopropyl 1-(1-(6-carbamoyl-5-(4-(morpholine-4-carbonyl)phenylamino)-1,2,4-triazin-3-yl)piperidin-3-yl)hydrazine-1,2-dicarboxylate], for which the IC50 under setting [1] was 10 to 100 nM.

In the case of `CC#CC(=O)N1CCC[C@@H](Nc2nnc(C(N)=O)c(Nc3ccc(S(C)(=O)=O)cc3)n2)C1` [Example 105, (R)-3-(1-but-2-ynoylpiperidin-3-ylamino)-5-(4-(methylsulfonyl)phenylamino)-1,2,4-triazine-6-carboxamide], under setting [1], the IC50 is less than 10 nM.

Take `CN(C)C(=O)N[C@@H]1CCCN(c2cnc(C(N)=O)c(Nc3ccc(=O)n(C)c3)n2)C1` [Example 186, (R)-5-(3-(3,3-dimethylureido)piperidin-1-yl)-3-(1-methyl-6-oxo-1,6-dihydropyridin-3-ylamino)pyrazine-2-carboxamide]: the IC50 was 10 to 100 nM (Btk (IC50)) and 10 to 100 nM under setting [1].

Regarding `NC(=O)c1nnc(N2CCC[C@@H](NC(=O)c3ccccn3)C2)nc1Nc1ccc(C(=O)N2CCOCC2)cc1` [Example 12, (R)-5-(4-(morpholine-4-carbonyl)phenylamino)-3-(3-(picolinamido)piperidin-1-yl)-1,2,4-triazine-6-carboxamide], under setting [1], the IC50 is less than 10 nM.

Regarding `CN(C/C=C/C(=O)N1CCC[C@@H](Nc2nnc(C(N)=O)c(Nc3ccc(S(C)(=O)=O)cc3)n2)C1)C1CC1` [Example 107, (R,E)-3-(1-(4-(cyclopropyl(methyl)amino)but-2-enoyl)piperidin-3-ylamino)-5-(4-(methylsulfonyl)phenylamino)-1,2,4-triazine-6-carboxamide], the IC50 under setting [1] was less than 10 nM.

Take `N#CCC(=O)N1CCC(c2ccc(Nc3nc(N4CCC[C@@H](NC(=O)N5CCCCC5)C4)cnc3C(N)=O)cc2)CC1` [Example 150, (R)-3-(4-(1-(2-cyanoacetyl)piperidin-4-yl)phenylamino)-5-(3-(piperidine-1-carboxamido)piperidin-1-yl)pyrazine-2-carboxamide]: the concentration for half-maximal inhibition (IC50) under setting [1] is less than 10 nM and the IC50 (read-out: Btk (IC50)) is less than 10 nM.

`CCC(=O)N1CCC(C)(c2ccc(Nc3nc(N4CCC[C@@H](N5CCN(C)C5=O)[C@H]4C)cnc3C(N)=O)cc2)CC1` [Example 255, 3-(4-(4-methyl-1-propionylpiperidin-4-yl)phenylamino)-5-((2R,3R)-2-methyl-3-(3-methyl-2-oxoimidazolidin-1-yl)piperidin-1-yl)pyrazine-2-carboxamide]: the IC50 under setting [1] is less than 10 nM and the IC50 (read-out: Btk (IC50)) was less than 10 nM.

Consider `COc1ccc(C(=O)N[C@@H]2CCCN(c3cnc(C(N)=O)c(Nc4ccc(C(=O)N(C)C)cc4)n3)C2)cc1` [Example 118, (R)-3-(4-(dimethylcarbamoyl)phenylamino)-5-(3-(4-methoxybenzamido)piperidin-1-yl)pyrazine-2-carboxamide], for which the IC50 reads like this: under setting [1], 10 to 100 nM; (read-out: Btk (IC50)) 10 to 100 nM.

`COc1ccc(C(=O)N[C@@H]2CCCN(c3cnc(C(N)=O)c(Nc4ccc5ncsc5c4)n3)C2)cc1` [Example 121, (R)-3-(benzo[d]thiazol-6-ylamino)-5-(3-(4-methoxybenzamido)piperidin-1-yl)pyrazine-2-carboxamide]: the IC50 by setting is: under setting [1], 10 to 100 nM; (read-out: Btk (IC50)) 10 to 100 nM.

Take `CN(C)CCOc1ccc(Nc2nc(N3CCC[C@@H](NC(=O)N(C)C)C3)cnc2C(N)=O)cc1` [Example 191, (R)-3-(4-(2-(dimethylamino)ethoxy)phenylamino)-5-(3-(3,3-dimethylureido)piperidin-1-yl)pyrazine-2-carboxamide]: the IC50 is, setting by setting: (Btk (IC50)) 10 to 100 nM; under setting [1], 10 to 100 nM.

As for `Cc1cc(Nc2nc(N3CCC[C@@H](NC(=O)N(C)C)C3)cnc2C(N)=O)sn1` [Example 187, (R)-5-(3-(3,3-dimethylureido)piperidin-1-yl)-3-(3-methylisothiazol-5-ylamino)pyrazine-2-carboxamide], the IC50 runs as follows: (Btk (IC50)) 10 to 100 nM; under setting [1], 10 to 100 nM.

On to `COc1ccc(C(=O)N[C@@H]2CCCN(c3cnc(C(N)=O)c(Nc4ccc(C(C)C)cc4)n3)C2)cc1` [Example 160, (R)-3-(4-isopropylphenylamino)-5-(3-(4-methoxybenzamido)piperidin-1-yl)pyrazine-2-carboxamide], for which the IC50 under setting [1] lay within 10 to 100 nM.

Consider `NC(=O)c1nnc(N2CCC[C@@H](NC(=O)N3CCC(N4CCCCC4)CC3)C2)nc1Nc1ccc(C(=O)N2CCOCC2)cc1` [Example 37, (R)—N-(1-(6-carbamoyl-5-(4-(morpholine-4-carbonyl)phenylamino)-1,2,4-triazin-3-yl)piperidin-3-yl)-1,4′-bipiperidine-1′-carboxamide], for which, under setting [1], the IC50 lay in the range of 10 to 100 nM.

`CCN1CCC(c2ccc(Nc3nc(N4CCC[C@@H](N5CCN(C)C5=O)C4)cnc3C(N)=O)cc2)CC1` [Example 257, (R)-3-(4-(1-ethylpiperidin-4-yl)phenylamino)-5-(3-(3-methyl-2-oxoimidazolidin-1-yl)piperidin-1-yl)pyrazine-2-carboxamide]: the IC50 is less than 10 nM under setting [1] and less than 10 nM (read-out: Btk (IC50)).

As for `COc1ccc(C(=O)N[C@@H]2CCCN(c3cnc(C(N)=O)c(Nc4ccc(C5CCN(C(C)=O)CC5)cc4)n3)C2)cc1` [Example 139, (R)-3-(4-(1-acetylpiperidin-4-yl)phenylamino)-5-(3-(4-methoxybenzamido)piperidin-1-yl)pyrazine-2-carboxamide], the IC50 runs as follows: under setting [1], less than 10 nM; (read-out: Btk (IC50)) less than 10 nM.

For `CC(C)(C)c1ccc(C(=O)N[C@@H]2CCCN(c3cnc(C(N)=O)c(Nc4ccc(C(=O)N5CCOCC5)cc4)n3)C2)cc1` [Example 73, (R)-5-(3-(4-tert-butylbenzamido)piperidin-1-yl)-3-(4-(morpholine-4-carbonyl)phenylamino)pyrazine-2-carboxamide], under setting [1], the half-maximal inhibitory concentration (IC50) was less than 10 nM.

Consider `Cc1nc(Nc2nc(N3CCC[C@@H](NC(=O)N(C)C)C3)cnc2C(N)=O)ccc1F` [Example 184, (R)-5-(3-(3,3-dimethylureido)piperidin-1-yl)-3-(5-fluoro-6-methylpyridin-2-ylamino)pyrazine-2-carboxamide], for which the IC50 lay in the range of 100 to 1000 nM. In addition, the IC50 under setting [1] was in the range of 1000 to 10000 nM.

For the compound `CCOC(=O)N[C@@H]1CCCN(c2cnc(C(N)=O)c(Nc3ccc(C4CCN(C5CCCC5)CC4)cc3)n2)C1` [Example 298, (R)-ethyl 1-(5-carbamoyl-6-(4-(1-cyclopentylpiperidin-4-yl)phenylamino)pyrazin-2-yl)piperidin-3-ylcarbamate], the half-maximal inhibitory concentration (IC50) is less than 10 nM under setting [1] and less than 10 nM (read-out: Btk (IC50)).

Regarding `CCN1CCC(c2ccc(Nc3nc(N4CCC[C@@H](NC(=O)N(C)C)C4)cnc3C(N)=O)cc2)CC1` [Example 207, (R)-5-(3-(3,3-dimethylureido)piperidin-1-yl)-3-(4-(1-ethylpiperidin-4-yl)phenylamino)pyrazine-2-carboxamide], the IC50 runs as follows: (Btk (IC50)) 10 to 100 nM; under setting [1], 10 to 100 nM.

Regarding `CCN1CCN([C@@H]2CCCN(c3cnc(C(N)=O)c(Nc4ccc(C5(C)CCN(C6CC6)CC5)cc4)n3)C2)C1=O` [Example 276, (R)-3-(4-(1-cyclopropyl-4-methylpiperidin-4-yl)phenylamino)-5-(3-(3-ethyl-2-oxoimidazolidin-1-yl)piperidin-1-yl)pyrazine-2-carboxamide], the 50% inhibitory concentration (IC50) is less than 10 nM under setting [1] and less than 10 nM (read-out: Btk (IC50)).

On to `CC(C)(C)c1ccc(C(=O)N[C@@H]2CCCN(c3cnc(C(N)=O)c(Nc4ccc(C(=O)N5CCOCC5)cc4)c3)C2)cc1` [Example 76, (R)-5-(3-(4-tert-butylbenzamido)piperidin-1-yl)-3-(4-(morpholine-4-carbonyl)phenylamino)picolinamide], for which the IC50 under setting [1] is 100 to 1000 nM.

As to `C[C@@H]1CCN(c2cnc(C(N)=O)c(Nc3ccc(C4CCN(C5CCCC5)CC4)cc3)n2)C[C@@H]1NC(=O)N(C)C` [Example 290, 3-(4-(1-cyclopentylpiperidin-4-yl)phenylamino)-5-((3R,4R)-3-(3,3-dimethylureido)-4-methylpiperidin-1-yl)pyrazine-2-carboxamide], the IC50 under setting [1] lay within 10 to 100 nM.

Take `CN(C)C(=O)N[C@@H]1CCCN(c2cnc(C(N)=O)c(Nc3ccc(C4CCN(C(=O)C5CC5)CC4)cc3)n2)C1` [Example 171, (R)-3-(4-(1-(cyclopropanecarbonyl)piperidin-4-yl)phenylamino)-5-(3-(3,3-dimethylureido)piperidin-1-yl)pyrazine-2-carboxamide]: the concentration for half-maximal inhibition (IC50) is less than 10 nM under setting [1] and less than 10 nM (read-out: Btk (IC50)).

With `C[C@@H]1[C@H](NC(=O)N(C)C)CCCN1c1cnc(C(N)=O)c(Nc2ccc(C3(C)CCN(C4CCC4)CC3)cc2)n1` [Example 246, 3-(4-(1-cyclobutyl-4-methylpiperidin-4-yl)phenylamino)-5-((2R,3R)-3-(3,3-dimethylureido)-2-methylpiperidin-1-yl)pyrazine-2-carboxamide], the IC50 reads like this: under setting [1], less than 10 nM; (read-out: Btk (IC50)) less than 10 nM.

What is called IC50 is the concentration that gives 50% inhibition.
